# Test results as given in paper PMC4977651, “Molecular features of biguanides required for targeting of mitochondrial respiratory complex I and activation of AMP-kinase” (BMC Biology, 2016).
# pIC50: −log10 of the molar value. Several values for one entry are separate records, joined by “and”; a condition that tells them apart may be missing. Equal values may be shown once. Read-outs that look alike come from different tables or passages of the source.
# What was measured:
# permeabilized 143B cells = experiment: ADP-stimulated rotenone-sensitive OCR in permeabilized 143B cells; type: cell-based, human; parameters: rotenone sensitive OCR after ADP stimulation, individual replicates / rotenone sensitive OCR after ADP stimulation, average: unit not given here; details: for rotenone sensitive OCR after ADP stimulation, % of control, individual replicates / rotenone sensitive OCR after ADP stimulation, individual replicates / rotenone sensitive OCR after ADP stimulation, % of control, average / rotenone sensitive OCR after ADP stimulation, average: 143B permeabilised cells; for rotenone sensitive OCR after ADP stimulation, % of control, individual replicates / rotenone sensitive OCR after ADP stimulation, individual replicates: replicate 1-11; for rotenone sensitive OCR after ADP stimulation, % of control, average / rotenone sensitive OCR after ADP stimulation, average: average of replicates; for inhibition of the OCR (in words): permeabilized 143B cells, biguanide concentration equal to IC50
# Procedure: For permeabilized cell experiments, cells were seeded into XF96 plates at 0.9–1.1 × 10^4 per well and incubated for 48 h at 37 °C in 5 % CO2. Then, the growth medium was exchanged for assay buffer containing 3 nM plasma membrane permeabilizer ‘PMP’ (Seahorse Biosciences Inc.), 10 mM glutamate, 10 mM malate, 220 mM mannitol, 70 mM sucrose, 10 mM KH2PO4, 5 mM MgCl2, 1 mM EGTA, 0.2 % fatty acid-free bovine serum albumin (BSA), and 2 mM HEPES (pH 7.4 at 37 °C). […] The biguanides were allowed to accumulate for 30 min, then respiration was […] by the addition of 4 mM ADP. Rotenone was added (2 μM) at the end of the experiment.
# (§1) Rotenone-sensitive OCRs were calculated by subtracting the rotenone-insensitive rates (determined at the end of the experiment). OCRs were normalized by dividing by the OCR recorded immediately prior to the addition of biguanide. For rate of uptake calculations, the OCRs at time points after biguanide addition were divided by the OCRs at the same time points in control experiments. Data from wells with failed port injections were excluded from the analyses. The respiratory control ratio (RCR) values (state III versus state IV respiration) were ~11 and ~6 for permeabilized MDBK and 143B cells, respectively.
# [1] = target: mouse heart mitochondrial membranes (complex I) (Mus musculus, UniProt P03888+P03899+Q91WD5+Q9DC70); experiment: NADH:O2 oxidoreduction by mouse heart mitochondrial membranes; type: biochemical; details: for LogIC50 (best fit value): log of IC50 in mM
# Procedure: (§2) Complex I and mitochondrial membranes were prepared from Bos taurus (bovine) heart. Intact mitochondria were isolated from rat liver and mouse heart and liver. Membranes were prepared from mouse heart mitochondria by 5 s bursts of sonication at 4 °C and collected by centrifugation (75,000 × g, 1 h).
# Assays were performed at 32 °C in a SpectraMax 96-well plate reader. NADH:decylubiquinone oxidoreduction by complex I at 0.5 μg mL^−1 was measured in 20 mM Tris-HCl (pH 7.2), 0.15 % soy bean asolectin (Avanti Polar Lipids), and 0.15 % 3-((3-cholamidopropyl)dimethylammonium)-1-propanesulfonate (CHAPS, Merck Chemicals Ltd), with 200 μM decylubiquinone and 200 μM NADH, and monitored using ε340–380(NADH) = 4.81 mM^−1 cm^−1 [23]. Catalysis was initiated by addition of NADH and maximal rates determined by linear regression. NADH:O2 oxidoreduction by membranes was measured similarly but using 5 μg mL^−1 membranes in 10 mM Tris-HCl (pH 7.4) and 250 mM sucrose using 200 μM NADH and supplemented with 0.15 mM horse heart cytochrome c (Sigma-Aldrich Ltd.). Succinate:O2 oxidoreduction was measured using 40 μg mL^−1 membranes in 5 mM succinate in 10 mM Tris-HCl (pH 7.4) as described previously. Control experiments included NaCl (to match the ionic strength) or DMSO, as appropriate.
# Experimental values are reported as mean averages ± standard deviation (SD) of technical replicates for large sample sizes and mean averages ± standard error of the mean (SEM) of technical replicates for small sample sizes. Data were analyzed by the unpaired two-tailed Student’s t test. IC50 values were determined using the standard dose-effect relationship (activity (%) = 100 × IC50 / (IC50 + [inhibitor]^m) with the Hill Slope (m) set to unity for purified complex I) and are reported with 95 % confidence intervals.
# mouse heart mitochondria = experiment: ADP-stimulated rotenone-sensitive OCR in isolated mouse heart mitochondria; type: biochemical; parameters: rotenone sensitive OCR after ADP stimulation, individual replicates / rotenone sensitive OCR after ADP stimulation, average / rotenone sensitive OCR after 15 mins, average: unit not given here; details: for rotenone sensitive OCR after ADP stimulation, % of control, average / rotenone sensitive OCR after ADP stimulation, average: average of replicates; for rotenone sensitive OCR after ADP stimulation, % of control, individual replicates: replicate 1-11; for rotenone sensitive OCR after ADP stimulation, individual replicates: replicate 1-12
# Procedure: as §2
# Isolated mitochondria were monitored using a Seahorse XF96 extracellular flux analyzer at 32 °C. Mouse heart mitochondria, and mouse and rat liver mitochondria were plated into XF96 plates at 4 and 16–20 μg per well, respectively, in 220 mM mannitol, 70 mM sucrose, 10 mM KH2PO4, 5 mM MgCl2, 1 mM EGTA, 0.2 % fatty acid-free BSA, and 2 mM HEPES (pH 7.4 at 37 °C) with 10 mM glutamate and 10 mM malate and adhered by centrifugation (2000 × g, 20 min, 4 °C). The medium was supplemented with a further 5 mM glutamate and 5 mM malate and the mitochondria incubated for 15 min. Then two baseline readings were taken before the biguanides were added at IC50/5. […] Rotenone (2 μM) was added at the end of the experiment. Data from wells with failed port injections were excluded from the analyses. The RCR values (state III versus state IV respiration) were 3.4, 4.8, and 4.6 for mouse heart, rat liver, and mouse liver, respectively.
# 143B cells = experiment: Rotenone-sensitive oxygen consumption rate in intact 143B cells; type: cell-based, human; details: for rotenone sensitive OCR after 6 hours of biguanide exposure, % control, average / rotenone sensitive OCR after 6 hours of biguanide exposure, average: 143B cells, biguanide at IC50/10; for rotenone sensitive OCR after 6 hours of biguanide exposure, average: OCR normalized to OCR immediately prior to biguanide addition; for inhibition of rotenone-sensitive respiration (in words): intact 143B cells, biguanide at IC50/10, monitored for 6 h
# Procedure: 143B (CRL-8303 from ATCC), HepG2 (85011430 from The Health Protection Agency), and MDBK (CCL-22 from ATCC) cells were grown on Dulbecco’s modified Eagle’s medium (DMEM) supplemented with 10 % fetal bovine serum (FBS, Thermo Fisher Scientific) at 37 °C in 5 % CO2. All cells were confirmed as negative for mycoplasma.
# Oxygen consumption rates (OCRs) were measured using a Seahorse XF96 extracellular flux analyzer at 37 °C. For intact cell measurements, 1.4 × 10^4 143B, HepG2, or MDBK cells were plated (per well) in DMEM containing 10 % FBS into Seahorse Bioscience Inc. XF96 plates and incubated for ~12 h at 37 °C in 5 % CO2. Then, the medium was exchanged for assay buffer containing DMEM, 4.5 g L^−1 glucose, 1 mM pyruvate, 32 mM NaCl, 2 mM GlutaMAX, 15 mg L^−1 phenol red, and 20 mM HEPES (pH 7.4 at 37 °C) and the cells placed in a CO2-free incubator at 37 °C for 30 min. Basal oxygen consumption rates were established before the addition of biguanides at one-tenth of their IC50 (IC50/10), and followed for ~ 6 h before the addition of rotenone (2 μM).
# as §1
# [2] = read-out: IC50 (best fit value), Prism variable slope fit, Bottom 0, Top 100
# Sequence of mouse heart mitochondrial membranes (complex I) (P03899 whole entry): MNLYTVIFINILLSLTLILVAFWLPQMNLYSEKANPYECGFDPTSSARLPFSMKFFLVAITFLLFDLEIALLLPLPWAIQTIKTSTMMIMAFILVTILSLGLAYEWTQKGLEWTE
# Sequence of mouse heart mitochondrial membranes (complex I) (P03888 whole entry): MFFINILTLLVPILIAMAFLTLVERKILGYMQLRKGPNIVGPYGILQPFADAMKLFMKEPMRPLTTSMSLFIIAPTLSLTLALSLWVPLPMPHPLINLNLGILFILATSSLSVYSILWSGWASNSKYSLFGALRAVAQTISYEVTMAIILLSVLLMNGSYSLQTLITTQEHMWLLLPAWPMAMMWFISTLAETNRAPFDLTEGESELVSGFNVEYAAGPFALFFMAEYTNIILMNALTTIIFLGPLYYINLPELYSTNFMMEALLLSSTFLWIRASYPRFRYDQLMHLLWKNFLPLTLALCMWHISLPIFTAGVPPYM
# Sequence of mouse heart mitochondrial membranes (complex I) (Q9DC70 36-224): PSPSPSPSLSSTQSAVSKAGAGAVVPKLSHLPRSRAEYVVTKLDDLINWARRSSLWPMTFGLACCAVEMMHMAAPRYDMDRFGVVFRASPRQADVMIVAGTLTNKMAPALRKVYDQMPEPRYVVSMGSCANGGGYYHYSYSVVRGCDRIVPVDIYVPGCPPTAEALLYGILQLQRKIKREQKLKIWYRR
# Sequence of mouse heart mitochondrial membranes (complex I) (Q91WD5 34-463): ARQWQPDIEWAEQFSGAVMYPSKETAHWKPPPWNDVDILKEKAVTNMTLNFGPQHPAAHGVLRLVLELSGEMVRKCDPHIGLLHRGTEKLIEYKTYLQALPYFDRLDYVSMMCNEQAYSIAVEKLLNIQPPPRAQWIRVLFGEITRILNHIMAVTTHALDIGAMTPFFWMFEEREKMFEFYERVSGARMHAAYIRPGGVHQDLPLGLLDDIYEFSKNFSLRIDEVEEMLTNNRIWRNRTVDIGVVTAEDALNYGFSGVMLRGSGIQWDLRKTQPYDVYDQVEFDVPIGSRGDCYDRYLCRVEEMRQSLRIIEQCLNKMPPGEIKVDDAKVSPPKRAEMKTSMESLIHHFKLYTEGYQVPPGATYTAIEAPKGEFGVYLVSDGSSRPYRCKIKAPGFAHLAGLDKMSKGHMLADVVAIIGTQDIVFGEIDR
SMILES,"rotenone sensitive OCR after ADP stimulation, % of control, individual replicates (permeabilized 143B cells)","rotenone sensitive OCR after ADP stimulation, individual replicates (permeabilized 143B cells)",HillSlope (best fit value) ([1]; Prism variable slope fit),LogIC50 (best fit value) ([1]; Prism variable slope fit),"pIC50 [1, 2]","rotenone sensitive OCR after ADP stimulation, % of control, average (mouse heart mitochondria)","rotenone sensitive OCR after ADP stimulation, average (mouse heart mitochondria)","rotenone sensitive OCR after ADP stimulation, % of control, individual replicates (mouse heart mitochondria)","rotenone sensitive OCR after ADP stimulation, individual replicates (mouse heart mitochondria)","rotenone sensitive OCR after 6 hours of biguanide exposure, % control, average (143B cells) [% control]","rotenone sensitive OCR after 6 hours of biguanide exposure, average (143B cells)","rotenone sensitive OCR after ADP stimulation, % of control, average (permeabilized 143B cells)","rotenone sensitive OCR after ADP stimulation, average (permeabilized 143B cells)",inhibition of the OCR (in words) (permeabilized 143B cells),inhibition of rotenone-sensitive respiration (in words) (143B cells),other results
"[H]/N=C(/N)N/C(=N/[H])NCCc1ccccc1 [phenformin, reference compound]",10.68 % of control and 13.07 % of control and 7.19 % of control and 19.54 % of control and 11.54 % of control and 11.56 % of control and 7.70 % of control and 13.62 % of control and 4.19 % of control and 11.40 % of control and 4.31 % of control,25.49 and 31.21 and 17.16 and 46.64 and 27.56 and 27.59 and 18.38 and 32.52 and 10.00 and 27.22 and 10.30,-0.7733,-0.09624,3.10,30.06 % of control,73.69,34.41 % of control and 27.92 % of control and 37.45 % of control and 23.80 % of control and 31.47 % of control and 29.88 % of control and 25.27 % of control and 30.29 % of control,84.35 and 68.44 and 91.80 and 58.33 and 77.13 and 73.26 and 61.95 and 74.26,9.47,11.10,–,–,–,–,"remaining activity at 130 µM ([1]; inhibitor 0.13 mM, read-out: average % (rate, % of no-inhibitor control)): 80.6%; remaining activity at 250 µM ([1]; inhibitor 0.25 mM, read-out: average % (rate, % of no-inhibitor control)): 70.4%; remaining activity at 500 µM ([1]; inhibitor 0.50 mM, read-out: average % (rate, % of no-inhibitor control)): 59.3%; remaining activity at 1000 µM ([1]; inhibitor 1.00 mM, read-out: average % (rate, % of no-inhibitor control)): 46.6%; remaining activity at 2000 µM ([1]; inhibitor 2.00 mM, read-out: average % (rate, % of no-inhibitor control)): 33.2%; remaining activity at 5000 µM ([1]; inhibitor 5.00 mM, read-out: average % (rate, % of no-inhibitor control)): 18.7%; remaining activity at 10000 µM ([1]; inhibitor 10.00 mM, read-out: average % (rate, % of no-inhibitor control)): 12.3%; rotenone sensitive OCR after 15 mins, average (mouse heart mitochondria; ADP and phenformin added simultaneously, n = 8): 418.601; rotenone sensitive OCR after 15 mins, % control (no phenformin) (mouse heart mitochondria; ADP and phenformin added simultaneously, n = 8 with phenformin, n = 6 control): 85 ± 10 % control and 85.2397 % control; oxygen consumption, % of the control value (mouse heart mitochondria; phenformin at IC50/5 accumulated in the absence of ADP before ADP stimulation): 30%"
"CC(C)N=C(N)N=C(N)NC(C)C [compound 5, N-(propan-2-yl)-1-3-(propan-2-yl)carbamimidamidomethanimidamide]",36.39 % of control and 47.66 % of control and 76.44 % of control and 36.22 % of control and 38.53 % of control and 52.52 % of control and 38.52 % of control and 38.94 % of control,86.86 and 113.77 and 182.47 and 86.47 and 91.97 and 125.38 and 91.96 and 92.95,-1.037,-0.5351,–,111.59 % of control,270.26,121.74 % of control and 137.11 % of control and 79.19 % of control and 109.33 % of control and 124.83 % of control and 108.07 % of control and 108.05 % of control and 104.41 % of control,294.85 and 332.07 and 191.79 and 264.79 and 302.34 and 261.73 and 261.69 and 252.86,102.76,120.45,45.65 % of control,108.98,only limited inhibition,do not,"pIC50 ([1]; Prism variable slope fit, Bottom 0, Top 100, read-out: IC50 (best fit value)): 3.54"
"N=C(N)NC(N)=Nc1ccccc1 [compound 2, phenyl biguanide]",64.11 % of control and 81.27 % of control and 71.75 % of control and 89.78 % of control and 64.02 % of control and 84.74 % of control and 60.92 % of control and 78.85 % of control and 104.39 % of control and 61.15 % of control,153.03 and 194.01 and 171.28 and 214.31 and 152.84 and 202.30 and 145.43 and 188.22 and 249.19 and 145.97,-1.093,-0.05416,3.05,107.96 % of control,261.48,135.56 % of control and 93.15 % of control and 89.18 % of control and 125.36 % of control and 159.10 % of control and 52.24 % of control and 102.54 % of control and 106.56 % of control,328.33 and 225.59 and 215.99 and 303.61 and 385.34 and 126.52 and 248.35 and 258.08,98.12,115.02,76.10 % of control,181.66,only limited inhibition,do not,–
